Values quoted from earlier work, collected in patent US9795640B2, “Controlling appetite, promoting weight loss, reducing body fat, and/or improving glucose tolerance” (VANDERBILT UNIVERSITY, priority 2011, dated 2017).

Details: intraperitoneal administration; for obesity: animals fed a high-fat diet

Row | SMILES | food intake | obesity
1 | CCCCCCCC/C=C\CCCCCCCC(=O)NCCO [OEA, N-oleoyl-ethanolamide] | markedly reduces | markedly reduces
2 | CCCCCCCCCCCCCCCCCC(=O)NCCO [SEA, N-stearoyl-ethanolamide] | markedly reduces | markedly reduces
